The nature of series [1]: pKa by potentiometric titration (Sirius T3). The class given is physicochemical. Conditions: ISA water, 25° C., read-out: pKa [measured]. The procedure:
2.0.0.0 software. An automated aqueous titration method was used with initial values of 1.0 mg of solid API dissolved in 1.5 mL of ISA water and three sequential titrations on the same sample. In all three titrations, the sample solution was adjusted with 0.5 M KOH to a starting pH of 12 and slowly titrated with 0.5 M HCl to a final pH of 2.
Each titration curve was fit using the SiriusT3Refine Vers. 2.0.0.0 software, and the corresponding pKa values were calculated. […]

Series [2] in a line: Solubility / lyophilization concentration of Foxy-5 drug substance (background statements). Conditions: for solubility: water. The class given is physicochemical. The source says:
The current manufacturing process of Foxy-5 applies a product concentration for the final lyophilization of only 3 g/L due to the limited solubility of the salt free drug substance (DS) in water. This presents a bottleneck which severely limits the production throughput for the commercial manufacture of Foxy-5.
While this achievement is impressive, it nonetheless remains problematic to produce Foxy-5 on commercial scale when the final step requires such a high dilution.
Consequently, an increase of batch size by other solubilizing techniques than solvent polarity adjustments was proposed.

A short description of series [3]: High pH treatment of aqueous Foxy-5 solution tracked by HPLC. Type of series: physicochemical. Conditions: after 2 hours at pH=9. The procedure: After stirring of the Foxy-5 solution for 2 hours at pH 9 (see FIG. 4), the aspartimide peak in the HPLC chromatogram completely disappeared (<LOD). It is known that ring opening of aspartimides occurs at high pH, leading to the formation of either the parent compound and the […] and the D-Asp derivatives. However, significant dimer formation was observed (2.5% after 2 hours at pH=9). The identification of the dimer in the chromatogram was confirmed by co-elution with separately synthesized reference material.

Series [4] in a line: Stability study at 40° C. for two and four weeks (HPLC purity, appearance). Type of series: physicochemical. The settings on record: closed containers. As for the experimental part:
A stability study of the compositions according to the first aspect (and the previously prepared trisodium salt) at 40° C. for two and four weeks was performed. Some general trends were found. […] The purity of the tri-salts varied more than the purity of the di-salts (HPLC purity 78-95% at 4 weeks for the tri-salts vs. 87-96% at 4 weeks for the di-salts). Furthermore, as appears from FIG. 6, the absolute purity of the compositions comprising amino acids was generally higher after 4 weeks at 40° C. when compared with compositions comprising other salt formers (value at 4 weeks: ˜90% vs. ˜85% for tri-salts and ˜95% vs. ˜90% for di-salts).
The stability test data for all formed compositions and the starting material itself (Foxy-5 free acid) were measured at 0, 2 and 4 weeks storage @40° C. and included in FIG. 10.
The following parameters for the substance-specific UPLC method were employed for the purity measurements of the stability samples: […]

Series [5] in a line: Conversion of Foxy-5 to mono-, di- and tri-sodium salts. The class given is physicochemical. As for the experimental part:
As Foxy-5 contains three carboxylic groups (Asp^2, Glu^5, and the C-terminal carboxylic acids), the mono, di, and tri-sodium salts were generated by treating aqueous slurries of Foxy-5 (25 g/L) with 1 eq., 2 eq. and 3 eq. of sodium hydroxide. As starting material, a batch of Foxy-5 free acid containing very low amounts of two known impurities, the aspartimide (<0.1%) and the dimer, (<0.1%) was used (structures, see FIG. 2).
The di-sodium salt could be completely dissolved within 10 minutes after addition of NaOH (2 eq., pH=4.57). […] After lyophilization, 0.07% dimer and 0.79% aspartimide were detected.
The tri-sodium salt dissolved within 5 minutes after addition of NaOH (3 eq., pH=6.76) with minimal increase of the aspartimide impurity, but increased formation of the dimer was observed. After lyophilization, 0.41% dimer and 0.17% of the aspartimide were detected.

For series [6] the following is noted: cited from earlier work.

Values after ≈ are worked out from the molar mass of the structure shown. Structures can show the parent of a compound that is named as a salt. Where two headings read alike, the source gives them in different places. Peptide text beside a SMILES is read from it. * marks the point of attachment. For = O=C* Bounds are passed on as bounds.

For the compound `CSCC[C@H](NC=O)C(=O)N[C@@H](CC(=O)O)C(=O)NCC(=O)N[C@@H](CS)C(=O)N[C@@H](CCC(=O)O)C(=O)N[C@@H](CC(C)C)C(=O)O` [Foxy-5, For-Met-Asp-Gly-Cys-Glu-Leu-OH] (For-MDGCEL-OH), the pKa in series [1] (ASP carboxylic (acidic)) was found to be 3.98; in series [1] (CYS thiol (acidic)), 9.01; in series [1] (GLU carboxylic (acidic)), 4.79; in series [1] (terminal carboxylic (acidic)), 3.39. Moreover, the “DS concentration applicable in alternative lyophilization process” value in series [2] (aqueous 30% acetonitrile solution as solvent) is recorded as “up to 7 g/L”. In series [2] (free Foxy-5 hexapeptide, for comparison, listed as free Foxy-5 peptide), the aqueous solubility is 3000 µg/mL (≈ 4.32 mM). Also, the solubility in series [2] (free Foxy-5 hexapeptide, for comparison, read-out: aqueous solubility) was ~3000 µg/mL (≈ 4.32 mM); in series [2] (read-out: product concentration for the final lyophilization, limited by solubility of salt free drug substance in water) it was 3000 µg/mL. In series [3], the dimer formation amounted to 2.5%.
For the compound `CSCC[C@H](NC=O)C(=O)N[C@@H](CC(=O)O)C(=O)NCC(=O)N[C@@H](CS)C(=O)N[C@@H](CCC(=O)O)C(=O)N[C@@H](CC(C)C)C(=O)O` [NMG-P6] (For-MDGCEL-OH), the appearance after storage result in series [4] (2 weeks at 40° C.) was “sticky, glassy appearance”.
As to `CSCC[C@H](NC=O)C(=O)N[C@@H](CC(=O)O)C(=O)NCC(=O)N[C@@H](CS)C(=O)N[C@@H](CCC(=O)O)C(=O)N[C@@H](CC(C)C)C(=O)O` [DEA-P1] (For-MDGCEL-OH), in series [4] (2 and 4 weeks at 40° C.), the appearance after storage result is recorded as “glassy appearance”.
As for `CSCC[C@H](NC=O)C(=O)N[C@@H](CC(=O)O)C(=O)NCC(=O)N[C@@H](CS)C(=O)N[C@@H](CCC(=O)O)C(=O)N[C@@H](CC(C)C)C(=O)O` [di-sodium salt] (For-MDGCEL-OH), in series [5] (aqueous slurry of Foxy-5 25 g/L), the “time to complete dissolution after addition of NaOH” value was ≤ 10 min. For the same compound, the “aspartimide detected after lyophilization” value in series [5] (starting material aspartimide <0.1%, HPLC) is 0.79%. Also, the “dimer detected after lyophilization” value in series [5] (starting material dimer <0.1%, HPLC) stood at 0.07%.
With `NC(CO)(CO)CO` [tromethamine], in series [6], the “pKa of the salt-forming base” value is 8.0.
As to `CSCC[C@H](NC=O)C(=O)N[C@@H](CC(=O)O)C(=O)NCC(=O)N[C@@H](CS)C(=O)N[C@@H](CCC(=O)O)C(=O)N[C@@H](CC(C)C)C(=O)O` [mono-sodium salt] (For-MDGCEL-OH), the “dissolution after NaOH addition” value in series [5] (aqueous slurry of Foxy-5 25 g/L, 1 eq. NaOH, pH=3.84) is “could not be completely dissolved”.

What is called pKa is the pH at which an ionisable group is half protonated. A word on the aqueous solubility: it is the concentration that dissolves in the medium under given conditions. A low value points to a poorly soluble substance.

The values above are taken from patent publication US20250325485A1, “STABLE COMPOSITIONS OF FOXY-5 HEXAPEPTIDE WITH HIGH SOLUBILITY” (WNTRESEARCH AB, priority 2021, published 2025).
